Here are results for 11 compounds from patent US9024041B2, “P38 MAP kinase inhibitors” (Respivert Ltd., priority 2010, dated 2015).

Series [1] has as its target T1, Recombinant, phosphorylated p38 MAPKγ (MAPK12:Invitrogen) (Homo sapiens, UniProt P53778).
T1 construct: purchased Invitrogen
T1 sequence (P53778 1-367): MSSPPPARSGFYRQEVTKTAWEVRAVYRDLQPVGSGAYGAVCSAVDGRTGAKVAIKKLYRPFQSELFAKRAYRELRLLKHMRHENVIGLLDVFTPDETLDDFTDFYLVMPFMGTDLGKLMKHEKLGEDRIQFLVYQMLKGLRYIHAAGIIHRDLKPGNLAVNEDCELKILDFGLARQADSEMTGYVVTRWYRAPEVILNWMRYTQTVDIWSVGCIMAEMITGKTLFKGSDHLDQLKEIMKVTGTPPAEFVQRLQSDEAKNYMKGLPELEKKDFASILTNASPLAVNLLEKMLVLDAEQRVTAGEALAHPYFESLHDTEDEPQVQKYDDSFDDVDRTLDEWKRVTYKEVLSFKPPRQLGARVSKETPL
In words: p38 MAPKγ enzyme inhibition assay (FRET, Z-LYTE). It is filed as biochemical. The conditions noted are these: 2 hr pre-incubation, ATP 100 μM; read-out: Enzyme Inhibition IC50 p38γ.
Method: The enzyme inhibitory activities of compounds disclosed herein were determined by fluorescence resonance energy transfer (FRET) using synthetic peptides labelled with both donor and acceptor fluorophores (Z-LYTE, Invitrogen Ltd., Paisley, UK). Recombinant, phosphorylated p38 MAPKγ (MAPK12:Invitrogen) was diluted in HEPES buffer, mixed with the test compound at the desired final concentrations and incubated for 2 hr at RT. The FRET peptide (2 μM) and ATP (100 μM) were added to the enzyme/compound mixture and incubated for 1 hr. Development reagent (protease) was added for 1 hr prior to detection in a fluorescence microplate reader (Varioskan® Flash, ThermoFisher Scientific). The site-specific protease cleaves non-phosphorylated peptide only and eliminates the FRET signal. Phosphorylation levels of each reaction were calculated using the ratio of coumarin emission (donor) over fluorescein emission (acceptor) for which high ratios indicate high phosphorylation and low ratios indicate low phosphorylation levels.

The subject of series [2] is LPS-induced IL-8 release in d-U937 cells. Kind of series: LPS-induced IL-8 release in d-U937 cells. To be noted: Homo sapiens, dU937, 0.1 μg/mL LPS, 4 hr. Format: cell-based. The method, boiled down:
(§1)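 U937 cells differentiated with PMA (100 ng/mL, 48–72 hr), pre-incubated with compound 2 hr, then stimulated with 0.1 μg/mL E. coli O111:B4 LPS for 4 hr. Supernatant TNFα and IL-8 measured by sandwich ELISA; REC50 (TNFα) and IC50 (IL-8 inhibition vs vehicle) taken from concentration-response curves.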

For series [3], the target named is T2, p38 MAPKα isoform (MAPK14: Invitrogen) (Homo sapiens, UniProt Q16539).
T2 construct: purchased Invitrogen
T2 sequence (Q16539 whole entry, canonical isoform): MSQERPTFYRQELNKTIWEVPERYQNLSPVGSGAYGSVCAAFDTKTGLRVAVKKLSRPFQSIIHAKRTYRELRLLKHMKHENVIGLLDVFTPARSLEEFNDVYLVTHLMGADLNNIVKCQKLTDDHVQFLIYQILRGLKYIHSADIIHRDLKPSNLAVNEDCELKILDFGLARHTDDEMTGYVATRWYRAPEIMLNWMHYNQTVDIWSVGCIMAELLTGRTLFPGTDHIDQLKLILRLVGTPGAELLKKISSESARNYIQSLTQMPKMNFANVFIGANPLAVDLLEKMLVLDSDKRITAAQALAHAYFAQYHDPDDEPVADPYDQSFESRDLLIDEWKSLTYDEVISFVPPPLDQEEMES
In words: p38 MAPKα enzyme inhibition assay (FRET, Z-LYTE, via MAPKAP-K2 activation). Format: biochemical. To be noted: 2 hr pre-incubation, ATP 10.0 μM; read-out: Enzyme Inhibition IC50 p38α.

In series [4] the test system is Poly I:C-induced ICAM-1 expression in BEAS2B cells. In words: Poly I:C-induced ICAM-1 induction in BEAS2B cells. Format: cell-based. The conditions noted are these: Homo sapiens, BEAS-2B, poly I:C 1 μg/mL, 18 hr, read-out: PolyI:C/ICAM1 IC50 BEAS2B. The method, boiled down:
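Human bronchial epithelial BEAS2B cells were pre-incubated with compound for 2 h, then transfected with poly I:C at 1 μg/mL. Surface ICAM-1 was measured 18 h later by cell-based ELISA (OD450–655), normalised to crystal-violet cell number (OD595). IC50 was taken from the concentration–response curve against vehicle.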

The subject of series [5] is LPS-induced TNFα release in THP-1 cells. In words: LPS-induced TNFα release in THP-1 cells. To be noted: Homo sapiens, 3 μg/mL LPS, 4 hr. It is filed as cell-based. The essentials: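 Human monocytic cells were stimulated with 3 μg/mL E. coli LPS for 4 hr. Supernatant TNFα was measured by sandwich ELISA. Inhibition was taken relative to vehicle control, and IC50 derived from the concentration-response curve.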

Series [6] deals with Differentiated U937 cells. Kind of series: MTT assay: cell viability on exposure to test compounds. To be noted: percentage loss of cell viability vs vehicle; for MTT Assay (Viability) 4 h d-U937: 5% FCS; for MTT Assay (Viability) 24 h d-U937: 10% FCS. It is filed as cell-based, human. The method, boiled down:
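Differentiated U937 cells were pre-incubated with compound for either 4 h in 5% FCS or 24 h in 10% FCS, then given MTT for 1 h. Formazan was dissolved in DMSO and read at 550 nm. Viability loss is expressed as % versus 0.5% DMSO vehicle, so an apparent gain appears as a negative value.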
A general note: Formazan colour is commonly taken as a measure of viable cells.

The test system of series [7] is LPS-induced TNFα release in d-U937 cells. Kind of series: LPS-induced TNFα release in d-U937 cells. It is filed as cell-based. To be noted: Homo sapiens, dU937, 4 h; read-out: LPS/TNFα REC50 d-U937. The method, boiled down:
as §1

Marks after values point to notes of the source that are not given here.

`COc1ccc(-n2nc(C(C)(C)C)cc2NC(=O)Nc2ccc(Oc3ccnc(NC(=O)N4CCOCC4)c3)c3ccccc23)cn1` [Example 40, N-(4-(4-(3-(3-tert-butyl-1-(6-methoxypyridin-3-yl)-1H-pyrazol-5-yl)ureido)naphthalen-1-yloxy)pyridin-2-yl)morpholine-4-carboxamide]: the IC50 was determined as 113 nM in series [1]; 6.2 nM in series [2]; 15.6 nM in series [3]; 4.8 nM in series [4]; 1.5 nM in series [5]. Besides, the “MTT Assay (Viability) 4 h d-U937” value in series [6] (1 μg/mL) is recorded as −12.1%. For the same compound, the “MTT Assay (Viability) 24 h d-U937” value in series [6] (1 μg/mL) was −12.0%. Further, in series [7], the EC50 was determined as 0.9 nM.
Take `COCC(=O)Nc1cc(Oc2ccc(NC(=O)Nc3cc(C(C)(C)C)nn3-c3cc(OC)cc(OC)c3)c3ccccc23)ccn1` [Example 53, N-(4-(4-(3-(3-tert-butyl-1-(3,5-dimethoxyphenyl)-1H-pyrazol-5-yl)ureido)naphthalen-1-yloxy)pyridin-2-yl)-2-methoxyacetamide]: the IC50 was 83.4 nM in series [1]; 20 nM in series [2]; 29.9 nM in series [3]; 27.4 nM in series [4]; 1.2 nM in series [5]. Also, the “MTT Assay (Viability) 4 h d-U937” value in series [6] (1 μg/mL) was determined as 3.1%. Moreover, the “MTT Assay (Viability) 24 h d-U937” value in series [6] (1 μg/mL) is listed as −0.9%. Also, in series [7], the EC50 was 0.4 nM.
On to `COCC(=O)Nc1cc(Oc2ccc(NC(=O)Nc3cc(C(C)(C)C)nn3-c3ccc(OC)c(OC)c3)c3ccccc23)ccn1` [Example 11, N-(4-(4-(3-(3-tert-Butyl-1-(3,4-dimethoxyphenyl)-1H-pyrazol-5-yl)ureido)naphthalen-1-yloxy)pyridin-2-yl)-2-methoxyacetamide], for which the IC50 in series [1] was 151 nM; in series [2], 3.6 nM; in series [3], 4 nM; in series [4], 2.5 nM; in series [5], 0.6 nM. In series [6] (1 μg/mL), the “MTT Assay (Viability) 4 h d-U937” value is listed as −9.3%. For the same compound, the “MTT Assay (Viability) 24 h d-U937” value in series [6] (1 μg/mL) is −0.8%. In addition, the EC50 in series [7] amounted to 0.2 nM.
As to `COCC(=O)Nc1cc(Oc2ccc(NC(=O)Nc3cc(C(C)(C)C)nn3-c3ccc(OC(F)(F)F)cc3)c3ccccc23)ccn1` [Example 41, N-(4-(4-(3-(3-tert-butyl-1-(4-(trifluoromethoxy)phenyl)-1H-pyrazol-5-yl)ureido)naphthalen-1-yloxy)pyridin-2-yl)-2-methoxyacetamide], the IC50 in series [1] is 875 nM; in series [2], 10.4 nM; in series [3], 26.1 nM; in series [4], 21.4 nM; in series [5], 7.6 nM. Also, the “MTT Assay (Viability) 4 h d-U937” value in series [6] (1 μg/mL) is −26.2%. Moreover, the “MTT Assay (Viability) 24 h d-U937” value in series [6] (1 μg/mL) is 1.3%. The EC50 in series [7] stood at 15.2 nM.
As for `COCC(=O)Nc1cc(Sc2ccc(NC(=O)Nc3cc(C(C)(C)C)nn3-c3ccc(C)cc3)c3ccccc23)ccn1` [Example 21, N-(4-(4-(3-(3-tert-Butyl-1-p-tolyl-1H-pyrazol-5-yl)ureido)naphthalen-1-ylthio)pyridin-2-yl)-2-methoxyacetamide], the IC50 turned out to be 341 nM in series [1]; 30.3 nM in series [2]; 26 nM in series [3]; 6.3 nM in series [4]; 2.5 nM in series [5]. Moreover, the “MTT Assay (Viability) 4 h d-U937” value in series [6] (1 μg/mL) is reported as 2.7%. The “MTT Assay (Viability) 24 h d-U937” value in series [6] (1 μg/mL) is given as 5.3%. For the same compound, in series [7], the EC50 stood at 6.6 nM.
Turning to `CNC(=O)Nc1cc(COc2ccc(NC(=O)Nc3cc(C(C)(C)C)nn3-c3ccc(OC)cc3)c(C)c2C)ccn1` [Example 60, 1-(4-((4-(3-(3-tert-butyl-1-(4-methoxyphenyl)-1H-pyrazol-5-yl)ureido)-2,3-dimethylphenoxy)methyl)pyridin-2-yl)-3-methylurea], the IC50 is over 17500 nM in series [1]; 364 nM in series [2]; 13 nM in series [3]; over 175 nM in series [4]; 122 nM in series [5]. Moreover, the “MTT Assay (Viability) 4 h d-U937” value in series [6] (1 μg/mL) was 17.2%. Also, the “MTT Assay (Viability) 24 h d-U937” value in series [6] (1 μg/mL) is −0.2%. The EC50 in series [7] turned out to be 24.3 nM.
Consider `COCC(=O)Nc1cc(Oc2ccc(NC(=O)Nc3cc(C(C)(C)C)nn3-c3ccc(Cl)cc3)c3ccccc23)ccn1` [Example 42, N-(4-(4-(3-(3-tert-butyl-1-(4-chlorophenyl)-1H-pyrazol-5-yl)ureido)naphthalen-1-yloxy)pyridin-2-yl)-2-methoxyacetamide], for which the IC50 in series [1] came out at 239 nM; in series [2], 18.9 nM; in series [3] it was 25 nM; in series [4], 22.2 nM; in series [5] it was 2.8 nM. Further, the “MTT Assay (Viability) 4 h d-U937” value in series [6] (1 μg/mL) is −10.7%. In addition, the “MTT Assay (Viability) 24 h d-U937” value in series [6] (1 μg/mL) is on record as −24.9%. Also, the EC50 in series [7] came out at 7.2 nM.
For the compound `CC(C)(C)c1cc(NC(=O)Nc2ccc(Oc3ccnc(NC(=O)N4CCOCC4)c3)c3ccccc23)n(-c2ccc(O)c(Cl)c2)n1` [Example 12, N-(4-((4-(3-(3-(tert-Butyl)-1-(3-chloro-4-hydroxyphenyl)-1H-pyrazol-5-yl)ureido)naphthalen-1-yl)oxy)pyridin-2-yl)morpholine-4-carboxamide], the IC50 in series [1] turned out to be 147 nM; in series [2], 8.4 nM; in series [3], 2.7 nM; in series [4] it was 3.2 nM; in series [5] it was 3.3 nM. In addition, the “MTT Assay (Viability) 4 h d-U937” value in series [6] (1 μg/mL) is −6.2%. Moreover, the “MTT Assay (Viability) 24 h d-U937” value in series [6] (1 μg/mL) is −42.9%. Further, the EC50 in series [7] turned out to be 0.4 nM.
Regarding `COCCOCC(=O)Nc1cc(Cc2ccc(NC(=O)Nc3cc(C(C)(C)C)nn3-c3ccc(C)cc3)c3ccccc23)ccn1` [Example 65, N-(4-((4-(3-(3-tert-butyl-1-p-tolyl-1H-pyrazol-5-yl)ureido)naphthalen-1-yl)methyl)pyridin-2-yl)-2-(2-methoxyethoxy)acetamide], the IC50 in series [1] came to 275 nM; in series [2] it was 18.9 nM; in series [3], 1.2 nM; in series [4], 62.7 nM; in series [5], 10.7 nM. Further, the “MTT Assay (Viability) 4 h d-U937” value in series [6] (10 μg/mL) was −1.5^b %. In addition, in series [6] (10 μg/mL), the “MTT Assay (Viability) 24 h d-U937” value was 55.9^b %. In series [7], the EC50 was 10.9 nM.
Turning to `COCC(=O)Nc1cc(Cc2ccc(NC(=O)Nc3cc(C(C)(C)C)nn3-c3ccc(C)cc3)c3ccccc23)ccn1` [Example 64, N-(4-((4-(3-(3-tert-butyl-1-(p-tolyl)-1H-pyrazol-5-yl)ureido)naphthalen-1-yl)methyl)pyridin-2-yl)-2-methoxyacetamide], the IC50 in series [1] is 1650 nM; in series [2], 7.4 nM; in series [3] it was 17.1 nM; in series [4], 20.1 nM; in series [5] it was 10.9 nM. The “MTT Assay (Viability) 4 h d-U937” value in series [6] (10 μg/mL) is given as −3.7^b %. Further, in series [6] (10 μg/mL), the “MTT Assay (Viability) 24 h d-U937” value is 61.6^b %. In series [7], the EC50 is 2.1 nM.
Consider `COc1ccc(-n2nc(C(C)(C)C)cc2NC(=O)Nc2ccc(Oc3ccnc(NC(=O)N4CCCC4)c3)c3ccccc23)cc1` [Example 8, N-(4-(4-(3-(3-tert-Butyl-1-(4-methoxyphenyl)-1H-pyrazol-5-yl)ureido)naphthalen-1-yloxy)pyridin-2-yl)pyrrolidine-1-carboxamide], for which the IC50 in series [1] was determined as 228 nM; in series [2] it was 1.2 nM; in series [3], 16.6 nM; in series [4] it was 1.4 nM; in series [5], 1.6 nM. Moreover, the “MTT Assay (Viability) 4 h d-U937” value in series [6] (1 μg/mL) is −20.1%. In series [6] (1 μg/mL), the “MTT Assay (Viability) 24 h d-U937” value is given as −77.9%. Moreover, the EC50 in series [7] was 0.6 nM.
